Consider 20 compounds from patent US8835464B2, “Triazole compounds that modulate HSP90 activity” (Synta Pharmaceuticals Corp., priority 2006, dated 2014).

Structures can show the parent of a compound that is named as a salt.

In the first test the test system is Hsp90. Briefly: IC50 of compounds of the invention, Example B Method 2 (Tables 6-9). Format: cell-based, human. To be noted: Table 7; Her2 degradation / inhibition of Hsp90; Method 2: MV-4-11 cells, 72 hours, Cell Counting Kit-8; read-out: IC50. For orientation: Tetrazolium assays rely on reduction of a dye to a coloured formazan, in cell work by metabolically active cells.
In the case of `COCC(=O)Nc1nnc(-c2cc(C(C)C)c(O)cc2O)n1-c1ccc2c(ccn2C)c1` [Compound 13a, N-(5-(2,4-dihydroxy-5-isopropylphenyl)-4-(1-methyl-1H-indol-5-yl)-4H-1,2,4-triazol-3-yl)-2-methoxyacetamide], the concentration for half-maximal inhibition (IC50) was 1800 nM.

Consider `CC(C)C(=O)Nc1nnc(-c2cc(C(C)C)c(O)cc2O)n1-c1ccc2c(ccn2C)c1` [Compound 14a, N-(5-(2,4-dihydroxy-5-isopropylphenyl)-4-(1-methyl-1H-indol-5-yl)-4H-1,2,4-triazol-3-yl)isobutyramide], for which the 50% inhibitory concentration (IC50) came to 1560 nM.

Turning to `CC(C)c1cc(-c2nnc(NC(=O)c3ccco3)n2-c2ccc3c(ccn3C)c2)c(O)cc1O` [Compound 15a, N-(5-(2,4-dihydroxy-5-isopropylphenyl)-4-(1-methyl-1H-indol-5-yl)-4H-1,2,4-triazol-3-yl)furan-2-carboxamide], the 50% inhibitory concentration (IC50) came out at 1040 nM.

Consider `CC(C)c1cc(-c2nnc(NC(=O)Cc3ccccc3)n2-c2ccc3c(ccn3C)c2)c(O)cc1O` [Compound 16a, N-(5-(2,4-dihydroxy-5-isopropylphenyl)-4-(1-methyl-1H-indol-5-yl)-4H-1,2,4-triazol-3-yl)-2-phenylacetamide], for which the IC50 is 1460 nM.

For the compound `CC(C)c1cc(-c2nnc(NC(=O)c3ccc(F)c(F)c3)n2-c2ccc3c(ccn3C)c2)c(O)cc1O` [Compound 17a, N-(5-(2,4-dihydroxy-5-isopropylphenyl)-4-(1-methyl-1H-indol-5-yl)-4H-1,2,4-triazol-3-yl)-3,4-difluorobenzamide], the IC50 was 1680 nM.

For `CC(C)c1cc(-c2nnc(NC(=O)C(F)(F)F)n2-c2ccc3c(ccn3C)c2)c(O)cc1O` [Compound 18a, N-(5-(2,4-dihydroxy-5-isopropylphenyl)-4-(1-methyl-1H-indol-5-yl)-4H-1,2,4-triazol-3-yl)-2,2,2-trifluoroacetamide], the IC50 is 3000 nM.

As for `CC(C)c1cc(-c2nnc(NC(=O)COc3ccc(Cl)cc3)n2-c2ccc3c(ccn3C)c2)c(O)cc1O` [Compound 19a, 2-(4-chlorophenoxy)-N-(5-(2,4-dihydroxy-5-isopropylphenyl)-4-(1-methyl-1H-indol-5-yl)-4H-1,2,4-triazol-3-yl)acetamide], the IC50 turned out to be 2740 nM.

As to `CC(C)c1cc(-c2nnc(NC(=O)C3CCCC3)n2-c2ccc3c(ccn3C)c2)c(O)cc1O` [Compound 20a, N-(5-(2,4-dihydroxy-5-isopropylphenyl)-4-(1-methyl-1H-indol-5-yl)-4H-1,2,4-triazol-3-yl)cyclopentanecarboxamide], the IC50 is 5920 nM.

The same test, now with this note: Table 8; Her2 degradation / inhibition of Hsp90; Method 2: MV-4-11 cells, 72 hours, Cell Counting Kit-8; read-out: IC50.
Turning to `CC(C)c1cc(-c2nn(COC(=O)C(N)Cc3ccccc3)c(=O)n2-c2ccc3c(ccn3C)c2)c(O)cc1O` (centres unmarked) [Compound 13b, (3-(2,4-dihydroxy-5-isopropylphenyl)-4-(1-methyl-1H-indol-5-yl)-5-oxo-4,5-dihydro-1H-1,2,4-triazol-1-yl)methyl 2-amino-3-phenylpropanoate], the concentration for half-maximal inhibition (IC50) is 27 nM.

As to `CC(C)c1cc(-c2nn(C(=O)CN)c(=O)n2-c2ccc3c(ccn3C)c2)c(OC(=O)CN)cc1OC(=O)CN` [Compound 15b, 4-(1-(2-aminoacetyl)-4-(1-methyl-1H-indol-5-yl)-5-oxo-4,5-dihydro-1H-1,2,4-triazol-3-yl)-6-isopropyl-1,3-phenylene bis(2-aminoacetate) trihydrochloride], the IC50 was determined as 79 nM.

`CC(N)C(=O)Oc1cc(OC(=O)C(C)N)c(C(C)C)cc1-c1nn(C(=O)C(C)N)c(=O)n1-c1ccc2c(ccn2C)c1` (centres unmarked) [Compound 16b, 4-(1-(2-aminopropanoyl)-4-(1-methyl-1H-indol-5-yl)-5-oxo-4,5-dihydro-1H-1,2,4-triazol-3-yl)-6-isopropyl-1,3-phenylene bis(2-aminopropanoate) trihydrochloride]: the IC50 stood at 56 nM.

`CC(C)c1cc(-c2nn(C(=O)C(N)Cc3ccccc3)c(=O)n2-c2ccc3c(ccn3C)c2)c(OC(=O)C(N)Cc2ccccc2)cc1OC(=O)C(N)Cc1ccccc1` (centres unmarked) [Compound 17b, 4-(1-(2-amino-3-phenylpropanoyl)-4-(1-methyl-1H-indol-5-yl)-5-oxo-4,5-dihydro-1H-1,2,4-triazol-3-yl)-6-isopropyl-1,3-phenylene bis(2-amino-3-phenylpropanoate) trihydrochloride]: the half-inhibitory concentration (IC50) came to 46 nM.

On to `COCCC(=O)Oc1cc(O)c(-c2nnc(OC(=O)CCOC)n2-c2ccc3c(ccn3C)c2)cc1C(C)C` [Compound 18b, 5-hydroxy-2-isopropyl-4-(5-(3-methoxypropanoyloxy)-4-(1-methyl-1H-indol-5-yl)-4H-1,2,4-triazol-3-yl)phenyl 3-methoxypropanoate], for which the IC50 was less than 100 nM.

Still in this test, the particulars now being: Table 9; Her2 degradation / inhibition of Hsp90; Method 2: MV-4-11 cells, 72 hours, Cell Counting Kit-8; hydrochloride; read-out: IC50 Range.
For the compound `CC(C)c1cc(-c2nnc(O)n2-c2ccc(N(C)C)c(S(N)(=O)=O)c2)c(O)cc1O` [Compound 13d, 5-(3-(2,4-dihydroxy-5-isopropylphenyl)-5-hydroxy-4H-1,2,4-triazol-4-yl)-2-(dimethylamino)benzene sulfonamide hydrochloride], the IC50 was 207 nM.

Still in this test, the particulars now being: Table 9; Her2 degradation / inhibition of Hsp90; Method 2: MV-4-11 cells, 72 hours, Cell Counting Kit-8; read-out: IC50 Range.
Consider `CC(C)c1cc(-c2nnc(S)n2-c2cccc(S(N)(=O)=O)c2)c(O)cc1O` [Compound 14d, 3-(3-(2,4-dihydroxy-5-isopropylphenyl)-5-mercapto-4H-1,2,4-triazol-4-yl)benzenesulfonamide], for which the half-inhibitory concentration (IC50) was 336 nM.

On to `CC(C)c1cc(-c2nnc(O)n2-c2cccc(S(=O)(=O)N3CCOCC3)c2)c(O)cc1O` [Compound 15d, 4-(5-hydroxy-4-(3-(morpholinosulfonyl)phenyl)-4H-1,2,4-triazol-3-yl)-6-isopropylbenzene-1,3-diol], for which the IC50 was found to be 330 nM.

Consider `CC(C)c1cc(-c2nnc(O)n2-c2ccc(N(C)S(C)(=O)=O)cc2)c(O)cc1O` [Compound 17d, N-(4-(3-(2,4-dihydroxy-5-isopropylphenyl)-5-hydroxy-4H-1,2,4-triazol-4-yl)phenyl)-N-methylmethanesulfonamide], for which the IC50 stood at 85 nM.

With `CC(C)c1cc(-c2nnc(O)n2-c2ccc(N3CCOCC3)nc2)c(O)cc1O` [Compound 19d, 4-(5-hydroxy-4-(6-morpholinopyridin-3-yl)-4H-1,2,4-triazol-3-yl)-6-isopropylbenzene-1,3-diol], the IC50 was found to be 49 nM.

As for `CC(C)c1cc(-c2nnc(O)n2-c2ccc(OCCN3CCOCC3)nc2)c(O)cc1O` [Compound 20d, 4-(5-hydroxy-4-(6-(2-morpholinoethoxy)pyridin-3-yl)-4H-1,2,4-triazol-3-yl)-6-isopropylbenzene-1,3-diol], the IC50 amounted to 114 nM.

Another test concerns Her2. Briefly: Degradation of Her2 in BT-474 cells, Western blot (Method 1). The format is cell-based, human. To be noted: 0.5 μM, overnight, positive control. On the procedure: Human high-Her2 breast carcinoma BT474 (HTB-20), SK-BR-3 (HTB-30) and MCF-7 breast carcinoma (HTB-22) from American Type Culture Collection, VA, USA were grown in Dulbecco's modified Eagle's medium with 4 mM L-glutamine and antibiotics ([…] penicillin and 100 ug/ml streptomycine; GibcoBRL). To obtain exponential cell growth, cells were trypsinized, counted and seeded at a cell density of 0.5×10^6 cells/ml regularly, every 3 days. All experiments were performed on day 1 after cell passage.
BT-474 cells are treated with 0.5 μM, 2 μM, or 5 μM of 17AAG (a positive control) or 0.5 μM, 2 μM, or 5 μM of a compound of the invention overnight in DMEM medium. After treatment, each cytoplasmic sample is prepared from 1×10^6 cells by incubation of cell lysis buffer (#9803, cell Signaling Technology) on ice for 10 minutes. The resulting supernatant used as the cytosol fractions is dissolved with sample buffer for SDS-PAGE and run on a SDS-PAGE gel, blotted onto a nitrocellulose membrane by using semi-dry transfer. Non-specific binding to nitrocellulose is blocked with 5% skim milk in TBS with 0.5% Tween at room temperature for 1 hour, then probed with anti-Her2/ErB2 mAb (rabbit IgG, #2242, Cell Signaling) and anti-Tubulin (T9026, Sigma) as housekeeping control protein. […]
In general terms: In western blotting, separated proteins are transferred to a membrane and probed.
On to `C=CCNC1=C2C[C@@H](C)C[C@H](OC)[C@H](O)[C@@H](C)/C=C(\C)[C@H](OC(N)=O)[C@@H](OC)/C=C\C=C(/C)C(=O)NC(=CC1=O)C2=O` [Compound 17AAG, 17-allylamino-17-demethoxygeldanamycin], for which the “degradation of Her2” value was “partial degradation”.

By IC50 is commonly meant the midpoint of a concentration-inhibition curve.
